In the supplement of paper PMC9663587:

What was measured:
ABT-737 = compound: CN(C)CC[C@H](CSc1ccccc1)Nc1ccc(S(=O)(=O)NC(=O)c2ccc(N3CCN(Cc4ccccc4-c4ccc(Cl)cc4)CC3)cc2)cc1[N+](=O)[O-] [ABT-737]
Luminespib/NVP-AUY922 = compound: CCNC(=O)c1noc(-c2cc(C(C)C)c(O)cc2O)c1-c1ccc(CN2CCOCC2)cc1 [Luminespib/NVP-AUY922]
Cabozantinib = compound: COc1cc2nccc(Oc3ccc(NC(=O)C4(C(=O)Nc5ccc(F)cc5)CC4)cc3)c2cc1OC [Cabozantinib]
[1] = compound: COc1ccc2c(c1)[C@]1(C[C@H]1c1ccc3c(/C=C/c4ccc(CN5C[C@@H](C)O[C@@H](C)C5)cc4)n[nH]c3c1)C(=O)N2
THZ-P1-2 = compound: CN(C)C/C=C/C(=O)NC1=CC=C(C=C1)C(=O)NC2=CC=CC(=C2)NC3=NC=NC(=C3)C4=CNC5=CC=CC=C54 [THZ-P1-2]
Paclitaxel = compound: CC(=O)O[C@H]1C(=O)[C@@]2(C)[C@H]([C@H](OC(=O)c3ccccc3)[C@]3(O)C[C@H](OC(=O)[C@H](O)[C@@H](NC(=O)c4ccccc4)c4ccccc4)C(C)=C1C3(C)C)[C@]1(OC(C)=O)CO[C@@H]1C[C@@H]2O [Paclitaxel]
AZD1775 = compound: C=CCn1c(=O)c2cnc(Nc3ccc(N4CCN(C)CC4)cc3)nc2n1-c1cccc(C(C)(C)O)n1 [AZD1775]
AZD6738 = compound: C[C@@H]1COCCN1c1cc(C2([S@](C)(=N)=O)CC2)nc(-c2cc[nH]c3nccc2-3)n1 [AZD6738]
Pictilisib/GDC0941 = compound: CS(=O)(=O)N1CCN(Cc2cc3nc(-c4cccc5[nH]ncc45)nc(N4CCOCC4)c3s2)CC1 [Pictilisib/GDC0941]
[2] = compound: Cc1nn(C)c(COc2ccc(N3CCN(S(=O)(=O)N(C)C)CC3)cc2)c1-c1cccc2c(CCCOc3cccc4ccccc34)c(C(=O)O)n(CCN3CCOCC3)c12
[3] = compound: CCc1cnn2c(NCc3ccc[n+]([O-])c3)cc(N3CCCC[C@H]3CCO)nc12
Flavopiridol = compound: CN1CC[C@H](c2c(O)cc(O)c3c(=O)cc(-c4ccccc4Cl)oc23)[C@H](O)C1 [Flavopiridol]
TGX221 = compound: CC1=CN2C(=O)C=C(N=C2C(=C1)C(C)NC3=CC=CC=C3)N4CCOCC4 [TGX221]
Buparlisib/NVP-BKM120 = compound: Nc1cc(C(F)(F)F)c(-c2cc(N3CCOCC3)nc(N3CCOCC3)n2)cn1 [Buparlisib/NVP-BKM120]
SHP099 = compound: CC1(CCN(CC1)C2=CN=C(C(=N2)N)C3=C(C(=CC=C3)Cl)Cl)N [SHP099]
LEE011/Ribociclib = compound: CN(C)C(=O)c1cc2cnc(Nc3ccc(N4CCNCC4)cn3)nc2n1C1CCCC1 [LEE011/Ribociclib]
Cediranib/AZD2171 = compound: COc1cc2c(Oc3ccc4[nH]c(C)cc4c3F)ncnc2cc1OCCCN1CCCC1 [Cediranib/AZD2171]
Saracatinib/AZD0530 = compound: CN1CCN(CCOc2cc(OC3CCOCC3)c3c(Nc4c(Cl)ccc5c4OCO5)ncnc3c2)CC1 [Saracatinib/AZD0530]
THZ1 = compound: CN(C)C/C=C/C(=O)Nc1ccc(C(=O)Nc2cccc(Nc3ncc(Cl)c(-c4c[nH]c5ccccc45)n3)c2)cc1 [THZ1]
BVD523 = compound: CC(C)Nc1cc(-c2c[nH]c(C(=O)N[C@H](CO)c3cccc(Cl)c3)c2)c(Cl)cn1 [BVD523]
Torin2 = compound: C1=CC(=CC(=C1)N2C(=O)C=CC3=CN=C4C=CC(=CC4=C32)C5=CN=C(C=C5)N)C(F)(F)F [Torin2]
[4] = compound: CNc1nc(-c2ccc3c(N)n[nH]c3c2)cc(N2C[C@@H](C(=O)NC3CCCCC3)CC[C@H]2C)n1
[5] = compound: CCCCOc1c(C(=O)c2c(F)cc(C)cc2F)c[nH]c2nncc1-2
Tivantinib/ARQ197 = compound: O=C1NC(=O)[C@@H](c2cn3c4c(cccc24)CCC3)[C@@H]1c1c[nH]c2ccccc12 [Tivantinib/ARQ197]
Alpelisib/BYL719 = compound: Cc1nc(NC(=O)N2CCC[C@H]2C(N)=O)sc1-c1ccnc(C(C)(C)C(F)(F)F)c1 [Alpelisib/BYL719]
AZD7762 = compound: NC(=O)Nc1cc(-c2cccc(F)c2)sc1C(=O)N[C@H]1CCCNC1 [AZD7762]
Ipatasertib/GDC0068 = compound: CC(C)NC[C@@H](C(=O)N1CCN(c2ncnc3c2[C@H](C)C[C@H]3O)CC1)c1ccc(Cl)cc1 [Ipatasertib/GDC0068]
Olaparib/AZD2281 = compound: O=C(c1cc(Cc2n[nH]c(=O)c3ccccc23)ccc1F)N1CCN(C(=O)C2CC2)CC1 [Olaparib/AZD2281]
[6] = compound: CCC1=CN=CN=C1N2CCN(CC2)CC3=NC4=C(N3)C=C(C=C4)C(F)(F)F
R0-3306 = compound: C1=CC2=C(C=CC(=C2)C=C3C(=O)NC(=NCC4=CC=CS4)S3)N=C1 [R0-3306]
senexin b = compound: CN1CCN(C(=O)c2ccc3cc(CCNc4ncnc5ccc(C#N)cc45)ccc3c2)CC1 [senexin b]
[7] = compound: CCN1CCN(Cc2ccc(Nc3ncc(F)c(-c4cc(F)c5nc(C)n(C(C)C)c5c4)n3)nc2)CC1
AZD5363 = compound: NC1(C(=O)N[C@@H](CCO)c2ccc(Cl)cc2)CCN(c2nc[nH]c3nccc2-3)CC1 [AZD5363]
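Also: breast cancer and non-malignant breast epithelial cell lines, Deep Dye Drop or Dye Drop imaging, nine half-log doses, GR normalized to time-zero plates and DMSO-only controls.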

Cell Line | GR50, 72 h (ABT-737) | GR50, 72 h (Luminespib/NVP-AUY922) | GR50, 72 h (Cabozantinib) | GR50, 72 h [1] | GR50, 72 h (THZ-P1-2) | GR50, 72 h (Paclitaxel) | GR50, 72 h (AZD1775) | GR50, 72 h (AZD6738) | GR50, 72 h (Pictilisib/GDC0941) | GR50, 72 h [2] | GR50, 72 h [3] | GR50, 72 h (Flavopiridol) | GR50, 72 h (TGX221) | GR50, 72 h (Buparlisib/NVP-BKM120) | GR50, 72 h (SHP099) | GR50, 72 h (LEE011/Ribociclib) | GR50, 72 h (Cediranib/AZD2171) | GR50, 72 h (Saracatinib/AZD0530) | GR50, 72 h (THZ1) | GR50, 72 h (BVD523) | GR50, 72 h (Torin2) | GR50, 72 h [4] | GR50, 72 h [5] | GR50, 72 h (Tivantinib/ARQ197) | GR50, 72 h (Alpelisib/BYL719) | GR50, 72 h (AZD7762) | GR50, 72 h (Ipatasertib/GDC0068) | GR50, 72 h (Olaparib/AZD2281) | GR50, 72 h [6] | GR50, 72 h (R0-3306) | GR50, 72 h (senexin b) | GR50, 72 h [7] | GR50, 72 h (AZD5363)
BT474 | 5.21 µM | 0.00444 µM | > 10 µM | 0.0122 µM | 5.82 µM | 0.00412 µM | 0.621 µM | 7.93 µM | 0.188 µM | > 10 µM | 0.0162 µM | 0.208 µM | > 10 µM | 0.281 µM | > 10 µM | > 10 µM | > 10 µM | 0.896 µM | 0.0129 µM | > 10 µM | 0.00998 µM | 1.3 µM | > 10 µM | 0.551 µM | 0.309 µM | 2 µM | 0.521 µM | > 10 µM | > 10 µM | 3.53 µM | 5.65 µM | – | –
184A1 | 3.93 µM | 0.00549 µM | 8.43 µM | 0.00198 µM | 1.72 µM | 0.00313 µM | 0.674 µM | > 10 µM | 1.3 µM | 3.65 µM | 0.0086 µM | 0.0383 µM | > 10 µM | 1.52 µM | 6.56 µM | 0.285 µM | 7.6 µM | 4.62 µM | 0.00774 µM | 0.00782 µM | 0.0106 µM | > 10 µM | < 0.001 µM | 0.0644 µM | 7.72 µM | 2.62 µM | > 10 µM | > 10 µM | > 10 µM | 2.78 µM | > 10 µM | 0.0256 µM | > 10 µM
PDX1258 | > 10 µM | 0.0101 µM | 8.59 µM | 0.00294 µM | 0.492 µM | 0.00215 µM | 0.0187 µM | 3.53 µM | 1.7 µM | > 10 µM | 0.0116 µM | 0.0943 µM | > 10 µM | 1.36 µM | > 10 µM | > 10 µM | 4.71 µM | 0.722 µM | 0.0148 µM | 4.62 µM | 0.0356 µM | > 10 µM | < 0.001 µM | 0.397 µM | > 10 µM | 0.0152 µM | 4.37 µM | > 10 µM | > 10 µM | 5.5 µM | > 10 µM | 0.674 µM | 3.52 µM
EFM19 | 8.35 µM | 0.021 µM | > 10 µM | 0.0156 µM | 6.33 µM | 0.00438 µM | 3.9 µM | > 10 µM | 0.23 µM | > 10 µM | 0.0283 µM | 0.284 µM | > 10 µM | 0.706 µM | > 10 µM | 1.71 µM | > 10 µM | 3.5 µM | 0.383 µM | > 10 µM | 0.0114 µM | 2.18 µM | 0.119 µM | 0.658 µM | 0.282 µM | 1.48 µM | 1.45 µM | > 10 µM | > 10 µM | 6.14 µM | > 10 µM | 0.025 µM | 1.63 µM
MCF12A | > 10 µM | 0.0103 µM | > 10 µM | 0.0103 µM | 8.04 µM | 0.00577 µM | 1.92 µM | 3.06 µM | 6.67 µM | > 10 µM | 0.0371 µM | 0.38 µM | > 10 µM | 2.84 µM | > 10 µM | > 10 µM | > 10 µM | 9.02 µM | 0.15 µM | 5.73 µM | 0.0424 µM | > 10 µM | 7.57 µM | 0.291 µM | > 10 µM | 0.129 µM | > 10 µM | > 10 µM | > 10 µM | 9.7 µM | > 10 µM | 5.94 µM | > 10 µM
MCF10A (GM) | – | – | – | 0.00625 µM | 7.51 µM | – | 5.15 µM | 6.85 µM | – | – | – | 0.101 µM | – | – | > 10 µM | > 10 µM | – | – | 0.0449 µM | 1.51 µM | – | > 10 µM | 0.355 µM | – | – | – | – | – | – | 6.32 µM | > 10 µM | – | > 10 µM
MGH312 | 2.19 µM | 0.00379 µM | 6.89 µM | 0.00114 µM | 4.45 µM | 0.00266 µM | 1.27 µM | – | 0.0806 µM | > 10 µM | 0.0108 µM | 0.0997 µM | 0.155 µM | 0.347 µM | > 10 µM | > 10 µM | 3.88 µM | 0.133 µM | 0.00839 µM | > 10 µM | 0.00596 µM | 0.0356 µM | 0.00785 µM | 0.379 µM | 6.6 µM | 0.202 µM | 0.037 µM | > 10 µM | 4.84 µM | 5.42 µM | 0.511 µM | 2.43 µM | < 0.001 µM
PDX1206 | – | – | – | 0.00708 µM | > 10 µM | – | 0.313 µM | 4.6 µM | – | – | – | 0.0514 µM | – | – | > 10 µM | > 10 µM | – | – | 0.0255 µM | > 10 µM | – | 1.86 µM | 0.00176 µM | – | – | – | – | – | – | 3.6 µM | 1.18 µM | – | 0.457 µM
